The results in this text go back to US10251819B2, “Amphiphilic polymer” (LG Chem, Ltd., priority 2015, dated 2019).

The nature of this data set: Percutaneous absorption test of genistein-loaded amphiphilic polymer solution, Franz diffusion cell. Format: in vitro ADME, porcine. The procedure:
The percutaneous absorption of genistein of the amphiphilic polymer solution in which genistein was loaded and which was prepared as above was evaluated using porcine skin (2×2 cm, thickness: 1000 μm) and a Franz diffusion cell (FIG. 2). A phosphate buffered saline (PBS) solution containing 30 wt % of dipropylene glycol (DPG) was used as an aqueous solution (acceptor solution) to maintain a sink condition with respect to genistein. 0.2 g of the amphiphilic polymer solution on which genistein was loaded was loaded in a Franz diffusion cell on which the porcine skin was mounted, and the test was performed at 32° C. similar to a skin temperature for 24 hours. Skin tissue into which genistein was absorbed was pulverized and extracted to analyze the content of genistein absorbed into the skin tissue and the content of genistein absorbed into the acceptor solution through HPLC, and the results are shown in Table 3.

“polycaprolactone (B)-polyethylene glycol (A)-polycaprolactone (B) copolymer [Comparative Example 1]”: the Skin penetration amount is 0.15 μg/cm^2 and the Skin penetration ratio is on record as 0.09%.
